{
  "source": "ChEMBL document CHEMBL1127303",
  "about": "“Triazolinone biphenylsulfonamides as angiotensin II receptor antagonists with high affinity for both the AT1 and AT2 subtypes” (J Med Chem, 1994)",
  "key": {"Rattus norvegicus [1]": {"test_system": "Rattus norvegicus", "experiment": "Tested for the ability to inhibit the pressor response to angiotensin II (AII) by intravenous administration at the dose of 1.0 mg/kg with duration of >6, <24 hr in two rats", "type": "functional"}, "Rattus norvegicus [2]": {"test_system": "Rattus norvegicus", "experiment": "Tested for the ability to inhibit the pressor response to angiotensin II (AII) by oral administration at the dose of 1.0 mg/kg with duration of>6, <24 hr in two rats", "type": "functional"}},
  "data": [
    {"compound": "CCCCc1nn(-c2ccccc2C(F)(F)F)c(=O)n1Cc1ccc(-c2ccccc2S(=O)(=O)NC(=O)OC(C)(C)C)cc1", "values": [
      {"measurement": "inhibition in vivo at 1 mg/kg", "setting": "Rattus norvegicus [1]", "result": 83, "unit": "%"},
      {"measurement": "inhibition in vivo at 1 mg/kg", "setting": "Rattus norvegicus [2]", "result": 87, "unit": "%"}
    ]}
  ]
}
